Test results from patent US8247211B2, “Glycopeptide antibiotics” (American Cyanamid Company, priority 2001, dated 2012).

How the values were obtained:
[1] = tested on: Streptococcus pneumoniae (GC 1894), penicillin resistant strain; experiment: Acute lethal infection in mice (ED50); format: in vivo; conditions: female CD-1 mice, intraperitoneal challenge, intravenous dose 30 min. after infection, 7 day survival ratios
Procedure, shortened: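 Groups of five female CD-1 mice per dose got intravenous antibiotic in saline or 5% dextrose half an hour after intraperitoneal infection sufficient to kill controls within 24-48 hr. Seven-day survival data from three experiments were combined to derive ED50.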

Escherichia coli = experiment: In vitro antibacterial evaluation: minimum inhibitory concentration (MIC), broth dilution method; format: cell-based; conditions: 5×10^5 CFU/mL, 18 hours at 35° C.
Procedure, shortened: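 Inoculum: 5×10^5 CFU/mL. Range: 64-0.06 μg/mL. Medium: Muller-Hinton II […]; NCCLS M7-A2 broth dilution. Endpoint: lowest concentration inhibiting growth. Strains include methicillin-, penicillin- and/or vancomycin-resistant clinical isolates.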

Staphylococcus sp. = experiment: as above; format: cell-based; conditions: for MIC Staphylococcus aureus (ATCC 29213): strain ATCC 29213; for MIC Staphylococcus aureus (GC 1131): strain GC 1131; for MIC Staphylococcus aureus (GC 3051): strain GC 3051; for MIC Staphylococcus aureus (GC 3053): strain GC 3053; for MIC Staphylococcus aureus (GC 4541): strain GC 4541; for MIC Staphylococcus aureus (GC 4545): strain GC 4545; for MIC Staphylococcus haemolyticus (GC 4546): strain GC 4546; for MIC Coagulase Negative Staphylococcus (GC 4547): strain GC 4547; for MIC Coagulase Negative Staphylococcus (GC 6257): strain GC 6257
Procedure, shortened: (§1)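 MIC by broth dilution in Mueller-Hinton II medium following NCCLS M7-A2. Inoculum was 5×10^5 CFU/mL and antibiotic was tested over 64-0.06 μg/mL. Gram-positive panel included clinical isolates resistant to methicillin, penicillin and/or vancomycin.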

Streptococcus sp. = experiment: as above; format: cell-based; conditions: broth dilution, 18 hours at 35° C.
Procedure, shortened: as §1

Enterococcus sp. = experiment: as above; format: cell-based; conditions: broth dilution, 18 hours at 35° C.
Procedure, shortened: as §1

[2] = Anatomic pathology (heart and kidney histopathology) in mice; format: in vivo, CD-1 mice; conditions: 20 mg/kg intravenously daily for 9 days, microscopic histopathology on day 10
Procedure, shortened: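 Histopathology on H&E-stained, paraffin-embedded sections, subjectively scored (slight, mild, moderate, marked, severe) relative to untreated controls. Dosing: glycopeptide antibiotics 20 mg/kg intravenously once daily ×9 days in 20-day-old CD-1 mice, n=5 per group including vehicle.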

[3] = broth dilution, 18 hours at 35° C.

N=C1NCC(C(O)C2NC(=O)C(Cc3ccc(OC4OC(CO)C(OC5OC6COC7(OC6C(O)C5O)C5CC6CC(C5)CC7C6)C(O)C4O)cc3)NC(=O)C(CC3CCCCC3)NC(=O)CNC(=O)C(CO)NC(=O)C(C(O)C3CNC(=N)N3C3OC(CO)C(O)C(O)C3O)NC2=O)N1 (stereo not drawn) [Example 106, Cyclo[3-cyclohexylalanyl-O-[4-O-[4,6-O-(2-adamantylidene)hexopyranosyl]hexopyranosyl]-tyrosyl-3-(2-iminoimidazolidin-4-yl)seryl-3-(3-hexopyranosyl-2-iminoimidazolidin-4-yl)-serylserylglycyl]]
32 to 64 µg/mL: MIC Escherichia coli (ATCC 25922) (Escherichia coli) | MIC Escherichia coli (GC 4559) (Escherichia coli)
0.07 mg/kg: median effective dose (ED50), Streptococcus pneumoniae (GC 1894) [1]
0.5 to 2 µg/mL: MIC Escherichia coli (GC 4560) (Escherichia coli) | MIC Staphylococcus aureus (ATCC 29213) (Staphylococcus sp.) | MIC Staphylococcus aureus (ATCC 29213) (Staphylococcus sp.; [3]) | MIC Staphylococcus aureus (GC 1131) (Staphylococcus sp.) | MIC Staphylococcus aureus (GC 1131) (Staphylococcus sp.; [3]) | MIC Staphylococcus aureus (GC 3051) (Staphylococcus sp.) | MIC Staphylococcus aureus (GC 3051) (Staphylococcus sp.; [3]) | MIC Staphylococcus aureus (GC 3053) (Staphylococcus sp.) | MIC Staphylococcus aureus (GC 3053) (Staphylococcus sp.; [3]) | MIC Staphylococcus aureus (GC 4541) (Staphylococcus sp.) | MIC Staphylococcus aureus (GC 4541) (Staphylococcus sp.; [3]) | MIC Staphylococcus aureus (GC 4545) (Staphylococcus sp.) | MIC Staphylococcus aureus (GC 4545) (Staphylococcus sp.; [3]) | MIC Coagulase Negative Staphylococcus (GC 4547) (Staphylococcus sp.) | MIC Coagulase Negative Staphylococcus (GC 4547) (Staphylococcus sp.; [3]) | MIC Enterococcus faecalis (ATCC 29212) (Enterococcus sp.; Enterococcus faecalis (ATCC 29212)) | MIC Enterococcus faecalis (GC 2242) (Enterococcus sp.; Enterococcus faecalis (GC 2242)) | MIC Enterococcus faecium (GC 2243) (Enterococcus sp.; Enterococcus faecium (GC 2243)) | MIC Enterococcus faecium (GC 4556) (Enterococcus sp.; Enterococcus faecium (GC 4556)) | MIC Enterococcus faecium (GC 4557) (Enterococcus sp.; Enterococcus faecium (GC 4557)) | MIC Enterococccus faecalis (ATCC 29212) (Enterococcus sp.; 5×10^5 CFU/mL) | MIC Enterococccus faecium (GC 2243) (Enterococcus sp.; 5×10^5 CFU/mL) | MIC Enterococccus faecium (GC 4556) (Enterococcus sp.; 5×10^5 CFU/mL) | MIC Enterococccus faecium (GC 4557) (Enterococcus sp.; 5×10^5 CFU/mL) | MIC Enterococcus faecalis (GC 2242) (Enterococcus sp.; 5×10^5 CFU/mL)
0: Anatomical Pathology (Day 10), Heart [2]
0.25 µg/mL: MIC Coagulase Negative Staphylococcus (GC 6257) (Staphylococcus sp.) | MIC Coagulase Negative Staphylococcus (GC 6257) (Staphylococcus sp.; [3])
1 to 2 µg/mL: MIC Enterococcus avium (GC 4558) (Enterococcus sp.; Enterococcus avium (GC 4558)) | MIC Enterococcus faecalis (GC 2691) (Enterococcus sp.; Enterococcus faecalis (GC 2691)) | MIC Enterococcus faecalis (GC 3059) (Enterococcus sp.; Enterococcus faecalis (GC 3059)) | MIC Enterococcus faecalis (GC 4552) (Enterococcus sp.; Enterococcus faecalis (GC 4552)) | MIC Enterococcus faecalis (GC 4553) (Enterococcus sp.; Enterococcus faecalis (GC 4553)) | MIC Enterococcus faecalis (GC 4554) (Enterococcus sp.; Enterococcus faecalis (GC 4554)) | MIC Enterococcus faecalis (GC 6189) (Enterococcus sp.; Enterococcus faecalis (GC 6189)) | MIC Enterococccus avium (GC 4558) (Enterococcus sp.; 5×10^5 CFU/mL) | MIC Enterococccus faecalis (GC 2691) (Enterococcus sp.; 5×10^5 CFU/mL) | MIC Enterococccus faecalis (GC 3059) (Enterococcus sp.; 5×10^5 CFU/mL) | MIC Enterococccus faecalis (GC 4552) (Enterococcus sp.; 5×10^5 CFU/mL) | MIC Enterococccus faecalis (GC 4553) (Enterococcus sp.; 5×10^5 CFU/mL) | MIC Enterococccus faecalis (GC 4554) (Enterococcus sp.; 5×10^5 CFU/mL) | MIC Enterococccus faecalis (GC 6189) (Enterococcus sp.; 5×10^5 CFU/mL)
<0.03 µg/mL: MIC Streptococcus agalactiae (GC 4564) (Streptococcus sp.; Streptococcus agalactiae (GC 4564)) | MIC Streptococcus pneumoniae (ATCC 6301) (Streptococcus sp.; Streptococcus pneumoniae (ATCC 6301)) | MIC Streptococcus pneumoniae (GC 1894) (Streptococcus sp.; Streptococcus pneumoniae (GC 1894)) | MIC Streptococcus pneumoniae (GC 4565) (Streptococcus sp.; Streptococcus pneumoniae (GC 4565)) | MIC Streptococcus pyogenes (GC 4563) (Streptococcus sp.; Streptococcus pyogenes (GC 4563)) | MIC Streptococcus agalactiae (GC 4564) (Streptococcus sp.; 5×10^5 CFU/mL) | MIC Streptococcus pneumoniae (GC 1894) (Streptococcus sp.; 5×10^5 CFU/mL) | MIC Streptococcus pneumoniae (GC 4565) (Streptococcus sp.; 5×10^5 CFU/mL) | MIC Streptococcus pneumonine (ATCC 6301) (Streptococcus sp.; 5×10^5 CFU/mL) | MIC Streptococcus pyogenes (GC 4563) (Streptococcus sp.; 5×10^5 CFU/mL)
0.5 to 1 µg/mL: MIC Staphylococcus haemolyticus (GC 4546) (Staphylococcus sp.) | MIC Staphylococcus haemolyticus (GC 4546) (Staphylococcus sp.; [3])
